Data as given in article PMC3724450 (Nature communications, 2013).

System: HCC4017
Assay: Cell viability assay, patient matched pair
Conditions: patient matched cancer vs normal lines

COC(=O)CNC(=O)C(=O)OC [D1070, dimethyloxalylglycine]
selectivity for cancer vs. normal patient matched cells: only five-fold selectivity for cancer
